Experimental findings from patent publication US10201527B2, “Benzimidazole derivatives: preparation and pharmaceutical applications” (MEI PHARMA, INC., priority 2003, dated 2019) are described below.

For one assay, the system named is Colo205 cells. Put plainly: Cell-based proliferation assay (cyquant), Colo205.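 Note: Colo205 human colon cancer cells exposed to compounds over a concentration range for 96 h, growth read by CyQUANT proliferation assay, GI50 taken from fitted dose-response curves.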 The note with it: Homo sapiens, 96 h treatment.
Another assay relates to MDA-MB435 cells. Put plainly: Cell-based proliferation assay (cyquant), MDA-MB435. The note with it: Homo sapiens, MDA-MB-435; 96 h treatment. The procedure:
Cell-Based Proliferation Assay for Determination of GI50 Values
Human colon cancer cell lines (Colo205 and HCT116), human breast cancer cell lines (MDA-MB435 and MDA-MB231), and human lung cancer cell line (A549) were obtained from ATCC. Colo205 cells were cultivated in RPMI 1640 containing 2 mM L-Glutamine, 5% FBS, 1.0 mM Na Pyruvate. A549 and MDA-MB231 were cultivated in RPMI 1640 containing 2 mM L-glutamine, 5% FBS. MDA-MB435 cells were cultivated in DMEM containing 2 mM L-Glutamine, 5% FBS. HCT116 cells were cultivated in IMEM containing 2 mM L-Glutamine, 5% FBS. A549 and Colo205 cells were seeded in 96-wells plate at 2000 and 5000 cells per well respectively. MDA-MB435, HCT116, MDA-MB231 cells were seeded in 96-wells plate at 6000 cells per well. The plates were incubated at 37° C., 5% CO2, for 24 h. Cells were treated with compounds at various concentration for 96 h. Cell growth was then monitored using cyquant cell proliferation assay (Invitrogen Pte Ltd). Dose response curves were plotted to determine GI50 values for the compounds using XL-fit.

The target in assay [1] is HDAC8 enzyme (recombinant GST-HDAC8) (Homo sapiens (Human), UniProt Q9BY41). The assay is described as follows: In vitro HDAC assay (BIOMOL fluorescent-based), HDAC8 enzyme. It is filed as biochemical.
Experimental: (§1) Expression of GST-HDAC1 or HTGST-HDAC8 was done by infecting SF9 cells (Invitrogen Pte Ltd) with pDEST20-HDAC1 or pFASTBAC-GST-HDAC8 baculovirus at MOI=1 for 48 h. Soluble cell lysate was incubated with pre-equilibrated Glutathione Sepharose 4B beads (Amersham) at 4° C. for 2 h. The beads were washed with PBS buffer for 3 times. The GST-HDAC1 protein or GST-HDAC8 protein was eluted by elution buffer containing 50 mM Tris, pH8.0, 150 mM NaCl, 1% Triton X-100 and 10 mM or 20 mM reduced Glutathione. The purified GST-HDAC1 protein or purified GST-HDAC8 protein was dialyzed with HDAC storage buffer containing 10 mM Tris, pH7.5, 100 mM NaCl and 3 mM MgCl2. 20% Glycerol was added to purified GST-HDAC1 protein or purified GST-HDAC8 before storage at −80° C.
In assay [2] the target is HDAC1 enzyme (recombinant GST-HDAC1) (Homo sapiens (Human), UniProt Q13547). Put plainly: In vitro HDAC assay (BIOMOL fluorescent-based), HDAC1 enzyme. It is filed as biochemical.
Experimental: as §1
For the next assay, the target named is HDAC3 (Homo sapiens (Human), UniProt O15379). Put plainly: In vitro HDAC assay, HDAC3. Format: biochemical. The note with it: Free base. On the procedure:
In Vitro HDAC Assay for Determination of IC50 Values
The assay has been carried out in 96 well format and the BIOMOL fluorescent-based HDAC activity assay has been applied. […] Flur de lys Developer was added and the reaction was incubated for 10 min. Briefly, deacetylation of the substrate sensitizes it to the developer, which then generates a fluorophore (symbol). The fluorophore is excited with 360 nm light and the emitted light (460 nm) is detected on a fluorometric plate reader (Tecan Ultra Microplate detection system, Tecan Group Ltd.).
The analytical software, Prism 3.0 has been used to generate IC50 from a series of data.

HDAC1 enzyme (recombinant GST-HDAC1), sequence (Q13547 whole entry): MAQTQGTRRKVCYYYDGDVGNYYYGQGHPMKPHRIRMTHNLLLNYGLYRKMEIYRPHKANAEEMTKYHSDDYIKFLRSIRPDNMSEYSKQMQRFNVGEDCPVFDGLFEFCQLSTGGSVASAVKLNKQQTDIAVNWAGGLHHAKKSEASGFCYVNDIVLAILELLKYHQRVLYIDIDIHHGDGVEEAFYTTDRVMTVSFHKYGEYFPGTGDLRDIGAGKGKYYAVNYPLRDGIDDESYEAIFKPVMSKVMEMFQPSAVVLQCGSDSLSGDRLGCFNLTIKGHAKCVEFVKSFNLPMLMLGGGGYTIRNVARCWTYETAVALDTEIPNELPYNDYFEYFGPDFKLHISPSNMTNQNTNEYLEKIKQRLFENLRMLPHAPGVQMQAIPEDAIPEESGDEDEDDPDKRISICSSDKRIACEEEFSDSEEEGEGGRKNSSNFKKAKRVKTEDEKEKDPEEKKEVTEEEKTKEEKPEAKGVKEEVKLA
HDAC8 enzyme (recombinant GST-HDAC8), sequence (Q9BY41 whole entry): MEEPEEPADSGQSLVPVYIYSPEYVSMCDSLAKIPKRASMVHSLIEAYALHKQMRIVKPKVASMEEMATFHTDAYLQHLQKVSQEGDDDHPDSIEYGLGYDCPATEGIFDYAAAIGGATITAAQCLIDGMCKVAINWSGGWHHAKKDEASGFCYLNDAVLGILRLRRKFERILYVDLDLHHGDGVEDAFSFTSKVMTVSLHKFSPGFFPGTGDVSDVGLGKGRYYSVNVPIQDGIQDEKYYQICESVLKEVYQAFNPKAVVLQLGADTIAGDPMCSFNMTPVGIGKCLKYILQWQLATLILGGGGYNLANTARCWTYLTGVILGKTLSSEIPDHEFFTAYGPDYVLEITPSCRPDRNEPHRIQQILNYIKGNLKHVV
HDAC3, sequence (O15379 whole entry): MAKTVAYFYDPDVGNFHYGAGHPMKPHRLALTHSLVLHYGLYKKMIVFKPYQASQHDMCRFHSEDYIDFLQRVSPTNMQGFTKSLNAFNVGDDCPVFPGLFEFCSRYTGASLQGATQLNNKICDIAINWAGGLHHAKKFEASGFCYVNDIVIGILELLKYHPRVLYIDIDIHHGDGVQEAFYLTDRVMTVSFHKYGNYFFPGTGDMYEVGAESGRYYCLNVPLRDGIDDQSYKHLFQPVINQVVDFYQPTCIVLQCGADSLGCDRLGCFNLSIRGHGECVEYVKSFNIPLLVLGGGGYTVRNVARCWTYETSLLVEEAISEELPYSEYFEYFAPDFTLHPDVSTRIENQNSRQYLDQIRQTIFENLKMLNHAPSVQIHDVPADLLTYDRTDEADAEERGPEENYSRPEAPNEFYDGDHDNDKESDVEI
Experimental for Colo205 cells: A549 and Colo205 cells were seeded in 96-wells plate at 2000 and 5000 cells per well respectively. […] The plates were incubated at 37° C., 5% CO2, for 24 h. Cells were treated with compounds at various concentration for 96 h. Cell growth was then monitored using cyquant cell proliferation assay (Invitrogen Pte Ltd). Dose response curves were plotted to determine GI50 values for the compounds using XL-fit.

In turn, `COc1ccc(-c2nc3cc(/C=C/C(=O)NO)ccc3n2CC(O)CO)cc1` (stereo not shown) [Compound 6, N-Hydroxy-3-[1-(2,3-hydroxy-propyl)-2-(4-methoxy-phenyl)-1H-benzimidazole-5-yl]-acrylamide] gave a concentration for 50% growth inhibition (GI50) in the assay on Colo205 cells (COLO 205) of more than 100000 nM.
On the same count and under the same terms, the value for `COc1cc(-c2nc3cc(/C=C/C(=O)NO)ccc3n2CC(O)CO)ccc1OCc1ccccc1` (stereo not shown) [Compound 7, N-Hydroxy-3-[2-(4-benzyloxy-3-methoxy-phenyl)-1-(2,3-hydroxy-propyl)-1H-benzimidazole-5-yl]-acrylamide] was more than 100000 nM.
With `O=C(/C=C/c1ccc2c(c1)nc(CCc1ccccc1)n2CC(O)CO)NO` (stereo not shown) [Compound 8], the values for the GI50 in the assay with Colo205 cells (COLO 205) and in the assay on MDA-MB435 cells were 41400 nM and 58.4 µM, respectively.
Consider `O=C(/C=C/c1ccc2c(c1)nc(-c1ccccn1)n2CC(O)CO)NO` (stereo not shown) [Compound 9, N-Hydroxy-3-[1-(2,3-hydroxy-propyl)-2-(2-pyridyl)-1H-benzimidazol-5-yl]-acrylamide], for which the GI50 in the assay on Colo205 cells (COLO 205) is more than 100000 nM; in the assay on MDA-MB435 cells, more than 100 µM.
For the compound `O=C(/C=C/c1ccc2c(c1)nc(-c1ccccn1)n2CCCO)NO` [Compound 13, N-Hydroxy-3-[1-(3-hydroxy-propyl)-2-(2-pyridyl)-1H-benzimidazol-5-yl]-acrylamide], the concentration for 50% growth inhibition (GI50) stood at 12300 nM with Colo205 cells (COLO 205) and 14.1 µM in the assay with MDA-MB435 cells.
As to `COCCCn1c(CCc2ccccc2)nc2cc(/C=C/C(=O)NO)ccc21` [Compound 15], the GI50 in the assay on Colo205 cells (COLO 205) worked out at 1990 nM; in the assay on MDA-MB435 cells, 4.07 µM.
For `O=C(/C=C/c1ccc2c(c1)nc(CCc1ccccc1)n2Cc1ccccn1)NO` [Compound 16, N-Hydroxy-3-(2-phenethyl-1-(pyridin-2-yl)methyl-1H-benzimidazol-5-yl)-acrylamide], the GI50 with Colo205 cells (COLO 205) was found to be 940 nM; in the assay on MDA-MB435 cells, 0.98 µM.
For `O=C(/C=C/c1ccc2c(c1)nc(CCc1ccccc1)n2CCc1ccccn1)NO` [Compound 18], in that order: 4690 nM and 6.16 µM.
For `O=C(/C=C/c1ccc2c(c1)nc(COCc1ccccc1)n2CCCO)NO` [Compound 19], in that order: 4100 nM and 3.97 µM.
Regarding `CC(C)Cc1nc2cc(/C=C/C(=O)NO)ccc2n1CCc1ccccn1` [Compound 22], the concentration for 50% growth inhibition (GI50) in the assay on Colo205 cells (COLO 205) stood at 13500 nM; in the assay on MDA-MB435 cells it was 13.3 µM.
For `O=C(/C=C/c1ccc2c(c1)nc(C1CCCCC1)n2CCCO)NO` [Compound 24, N-Hydroxy-[2-cyclohexyl-1-(3-hydroxy-propyl)-1H-benzimidazol-5-yl]-acrylamide], in that order: 30700 nM and 35 µM.
For `CC(C)Cc1nc2cc(/C=C/C(=O)NO)ccc2n1CCc1ccccc1` [Compound 25, N-Hydroxy-3-(2-isobutyl-1-phenethyl-1H-benzimidazol-5-yl]-acrylamide], in that order: 8100 nM and 6.82 µM.
Take `O=C(/C=C/c1ccc2c(c1)nc(COCc1ccccc1)n2CCc1cccnc1)NO` [Compound 28]: the GI50 with Colo205 cells (COLO 205) was determined as 2530 nM; in the assay with MDA-MB435 cells, 5.15 µM.
The matching figures for `O=C(/C=C/c1ccc2c(c1)nc(CCc1ccccc1)n2CCCN1CCOCC1)NO` [Compound 31, N-Hydroxy-3-[1-(3-morpholin-4-propyl]-2-phenethyl-1H-benzimidazol-5-yl}-acrylamide]: 1870 nM and 4.06 µM.
As to `O=C(O)CCn1c(CCc2ccccc2)nc2cc(/C=C/C(=O)NO)ccc21` [Compound 32, 3-[5-(2-Hydrocarbamoyl-vinyl)-2-phenethyl-benzimidazol-1-yl]-propionic acid], the half-maximal inhibitory concentration (IC50) in assay [1] stood at 1890 nM.
As to `CCCn1c(CCc2ccccc2)nc2cc(/C=C/C(=O)NO)ccc21` [Compound 36, N-Hydroxy-3-(2-phenethyl-1-propyl-1H-benzimidazol-5-yl}-acrylamide], the GI50 in the assay with Colo205 cells (COLO 205) worked out at 2290 nM; in the assay on MDA-MB435 cells it was 2.17 µM.
Take `O=C(NO)c1ccc2c(c1)nc(CCc1ccccc1)n2CCCO` [Compound 40, 1-(3-Hydroxy-propyl)-2-phenethyl-1H-benzimidazol-5-carboxylic acid hydroxyamide]: the GI50 is 25600 nM in the assay on Colo205 cells (COLO 205) and 31 µM in the assay on MDA-MB435 cells.
For `CC(Cc1nc2cc(/C=C/C(=O)NO)ccc2n1CCc1cccnc1)c1ccccc1` (stereo not shown) [Compound 41], in that order: 1650 nM and 1.91 µM.
For `O=C(/C=C/c1ccc2c(c1)nc(CCc1ccccc1)n2CCN1CCOCC1)NO` [Compound 44], the GI50 in the assay with Colo205 cells (COLO 205) was 2820 nM; with MDA-MB435 cells, 3.65 µM. The results for the concentration for half-maximal inhibition (IC50) in assay [2] and in assay [1] were 268 nM and 345 nM, respectively.
Take `COc1cc(Cn2c(CCc3ccccc3)nc3cc(CCC(=O)NO)ccc32)cc(OC)c1OC` [Compound 45]: the GI50 with Colo205 cells (COLO 205) was determined as 2410 nM; with MDA-MB435 cells, 1.9 µM.
Turning to `Cc1nc2cc(/C=C/C(=O)NO)ccc2n1C` [Compound 53], the 50% inhibitory concentration (IC50) in assay [2] amounted to 1850 nM.
`Cn1c(CNC(=O)Cc2ccccc2)nc2cc(/C=C/C(=O)NO)ccc21` [Compound 54]: the 50% growth inhibitory concentration (GI50) in the assay on Colo205 cells (COLO 205) worked out at 4470 nM; in the assay on MDA-MB435 cells it was 5.92 µM.
With `Cn1c(CNC(=O)c2ccncc2)nc2cc(/C=C/C(=O)NO)ccc21` [Compound 55], the figures for the 50% growth inhibitory concentration (GI50) with Colo205 cells (COLO 205) and in the assay on MDA-MB435 cells were more than 100000 nM and more than 100 µM, respectively. In assay [2], the IC50 was found to be 137 nM.
In the case of `O=C(/C=C/c1ccc2c(c1)nc(CCc1ccccc1)n2CCCn1ccnc1)NO` [Compound 56, N-Hydroxy-3-[1-(3-imidazol-1-yl-propyl)-2-phenethyl-1H-benzimidazol-5-yl]-acrylamide], the concentration for 50% growth inhibition (GI50) with Colo205 cells (COLO 205) is more than 100000 nM; with MDA-MB435 cells it was more than 100 µM.
`O=C(/C=C/c1ccc2nc(CCc3ccccc3)n(Cc3ccccc3)c2c1)NO` [Compound 58]: the IC50 in assay [2] came out at 1140 nM.
As for `Cn1c(CCc2ccccc2)nc2ccc(/C=C/C(=O)NO)cc21` [Compound 59], the GI50 with Colo205 cells (COLO 205) is 2720 nM; in the assay with MDA-MB435 cells, 3.69 µM. Besides, in assay [2], the IC50 was 382 nM.
For the compound `Cn1c(CN(Cc2ccccc2)Cc2ccccc2)nc2cc(/C=C/C(=O)NO)ccc21` [Compound 61], the GI50 in the assay with Colo205 cells (COLO 205) came out at 2690 nM; in the assay on MDA-MB435 cells, 3.05 µM.
The matching figures for `COc1ccc(CNCc2nc3cc(/C=C/C(=O)NO)ccc3n2C)cc1` [Compound 62]: 11600 nM and 19.8 µM.
Turning to `CCn1c(CNCc2ccccc2)nc2cc(/C=C/C(=O)NO)ccc21` [Compound 64, N-Hydroxy-3-[2-(benzylamino-methyl)-ethyl-1H-benzimidazol-5-yl]-acrylamide], in the assay with Colo205 cells (COLO 205), the GI50 turned out to be 1700 nM.
As to `O=C(/C=C/c1ccc2c(c1)nc(CCc1ccccc1)n2CCN1CCCCC1)NO` [Compound 67, N-Hydroxy-3-[2-phenethyl-1-(piperidin-1-yl-ethyl)-1H-benzimidazol-5-yl]-acrylamide], at HDAC3, 56 nM corresponded to half-maximal inhibition (IC50).
In the case of `CCn1c(CN(Cc2ccccc2)Cc2ccccc2)nc2cc(/C=C/C(=O)NO)ccc21` [Compound 68], growth with Colo205 cells (COLO 205) was halved (GI50) at 730 nM. That is a sub-micromolar value.
The same measure, in the same setting: the value for `Cn1c(CNC(=O)Cc2ccc(F)cc2)nc2cc(/C=C/C(=O)NO)ccc21` [Compound 69] was 7160 nM; that for `CCn1c(CCNC(=O)Cc2ccccc2)nc2cc(/C=C/C(=O)NO)ccc21` [Compound 70] was 2900 nM; that for `CCn1c(CCNS(=O)(=O)c2ccccc2)nc2cc(/C=C/C(=O)NO)ccc21` [Compound 71] was 7090 nM.
On the same count and under the same terms, the value for `O=C(/C=C/c1ccc2c(c1)nc(CCc1ccccc1)n2CCN1CCCC1)NO` [Compound 72, N-Hydroxy-3-[2-phenyethyl-1-(2-pyrrolidin-1-yl-ethyl)-1H-benzimidazol-5-yl]-acrylamide] was 180 nM; that for `CCn1c(CCNC(=O)COc2ccccc2)nc2cc(/C=C/C(=O)NO)ccc21` [Compound 73] was 6670 nM.
Regarding `CC(C)(C)Cn1c(CCc2ccccc2)nc2cc(/C=C/C(=O)NO)ccc21` [Compound 75], in the assay on Colo205 cells (COLO 205), it took 2880 nM to inhibit growth by half (GI50). Moreover, in assay [2], the IC50 is 290 nM.
`CN(C)CC(C)(C)Cn1c(CCCc2ccccc2)nc2cc(/C=C/C(=O)NO)ccc21` [Compound 83] registered a concentration for 50% growth inhibition (GI50) in the assay with Colo205 cells (COLO 205) of 250 nM.
The compound `CN(C)CC(C)(C)Cn1c(CCc2ccc(F)cc2)nc2cc(/C=C/C(=O)NO)ccc21` [Compound 84] showed a GI50 in the assay with Colo205 cells (COLO 205) of 170 nM.
In the assay on Colo205 cells (COLO 205), `O=C(/C=C/c1ccc2[nH]c(CCc3ccc(F)cc3)nc2c1)NO` [Compound 85] yielded a GI50 of 1650 nM. Against the preceding compound, the GI50 is about 9.7-fold higher.
Same read-out and setting: under `O=C(/C=C/c1ccc2[nH]c(CCc3cccnc3)nc2c1)NO` [Compound 87] stands 47700 nM.
`CN(C)CC(C)(C)Cn1c(SCc2ccccc2)nc2cc(/C=C/C(=O)NO)ccc21` [Compound 89, N-Hydroxy-3-[2-benzylsulfanyl-1-(3-dimethylamino-2-2,dimethyl-propyl)-1H-benzimidazol-5-yl]-acrylamide] showed a 50% growth inhibitory concentration (GI50) in the assay on Colo205 cells (COLO 205, 96 h) of 120 nM.
